# From patent publication US20250319026A1, “VITAMIN COMPOSITION FOR ORAL ADMINISTRATION” (priority 2023, published 2025)
# Assay: Concentrations of B vitamins obtainable in solution using polysorbate 40 as a solvent
# Format: physicochemical
# Conditions: polysorbate 40 as a solvent in an amount of at least 1.8 wt. %; water
# Text: One of the major disadvantages and drawbacks of the aforementioned prior art references is the absence of both pyridoxine, thiamine, cyanocobalamin in sufficiently high concentrations to ensure the supply of these vitamins to cover the necessary needs of the body.
substance,measurement,value
cyanocobalamin,concentration obtainable in the solution,at least 0.1 wt. %
